Data set [1] can be described thus: Powder adhesion to blender wall (initial powder weight minus powder recovered). It counts as physicochemical. Here is the method:
Reference will now be to FIGS. 17A, 17B and 18. To investigate the impact of using the surface of the blender on powder adhesion to the blender material, the total powder adhesion was calculated by subtracting the amount of powder recovered and initial powder weight. […] This may be the result of significant adhesive forces between the blender wall and ibuprofen particles. The blender wall has an opposite charge as compared to ibuprofen particles therefore powder particles becomes attracted to the blender wall and deposit there due to image forces. Additionally, bipolar charging may occur due to this high level of powder adhesion which could further decrease the number of particle-blender wall collisions, further changing the powder charging dynamics.

Data set [2] can be described thus: Tribocharging of ibuprofen powder in V blenders, specific charge measured by Faraday cup. It counts as physicochemical. The protocol:
Ibuprofen was chosen as the model blending powder 140 due to its ability to charge excessively and was evaluated in all the V blenders 110. The V blender materials were procured from McMaster-Carr (https://www.mcmaster.com/) and was fabricated at the University of Connecticut (https://uconn.edu/). Ibuprofen powder 140 was spread into thin layers onto aluminum foil and equilibrated overnight at 16% RH along with the V blender 110 before the blending experiments. Before starting the experiment, initial charge was measured using Faraday cup 200. The blender 110 was charged with the powder 140 and blended in all the blenders for different time intervals. After completion of the tribocharging experiment powder was collected in the Faraday cup 200 connected to a nano-coulombmeter to measure the charge, which was reported as charge to mass ratio, also known as specific charge (nC/g) (FIG. 9). All experiments were done in triplicate at room temperature and at 16% RH. Similar experiments were also performed using ibuprofen—excipient blends to understand equipment capability to mitigate electrostatic charging in other powders. For this study, Ibuprofen—Sugar sphere (500/600 μm) blends were evaluated using stainless steel (SS), stainless steel-PVC (SS-PVC), and PVC blenders. Sugar spheres is widely used excipient for sustained-release pellet formulations used in oral dosage forms therefore, selected for this study.
With reference to FIGS. 10-16, to study triboelectrification, a measured quantity 50 g of ibuprofen was loaded into the V blender 110 which were rotated at 13 rpm for different time intervals. The experiments were performed for different time intervals such as 2, 10, 20, 30, and 40 mins (respectively graphed as bars A-E in FIGS. 10-14) at 13 rpm and 16% relative humidity. […] Final charge with Al-PVC blender 110 of FIG. 6 as shown with the different graphed bars 12A-12E of the bar graph of FIG. 12 was negative in polarity, e.g., due to more interaction of ibuprofen with Aluminum. It can be observed after comparing specific charge from three blenders 110, the Al-PVC blender 110 of FIG. 6 can reduce charge (FIGS. 10-12).
Additionally, the graphs of these FIGS. are showing the charge in nC/g which might appear small but industrial manufacturing involves large scale handling of powders which leads to huge electrostatic charging.

Turning to `CC(C)Cc1ccc(C(C)C(=O)O)cc1` (stereo not shown) [Ibuprofen], the “powder adhesion to the blender walls” value in data set [1] (dual-material blenders (Al-PVC, SS-PVC)) is “decrease in the powder adhesion”; in data set [1] (metal or insulator (single-material) blenders) it was “significant adhesion”. In addition, the “charge accumulated compared with the PVC and Al blenders” value in data set [2] (Al-PVC blender, 13 rpm, 16% RH) is recorded as “significantly less”. Also, the “polarity of final charge” value in data set [2] (Al-PVC blender, 50 g, 13 rpm, 16% RH) is “negative”. For the same compound, the “polarity of charge acquired” value is recorded as “negatively” in data set [2] (Aluminum blender, 50 g, 13 rpm, 2-40 mins, 16% RH); “positively” in data set [2] (PVC blender, 50 g, 13 rpm, 2-40 mins, 16% RH); “positive charge” in data set [2] (PVC blender, 50 g, 13 rpm, 2-40 mins, 16% RH, listed as ibuprofen); “negative charge” in data set [2] (stainless steel and PVC blender (SS-PVC)); “negative charge” in data set [2] (stainless steel blender (cGMP material)). In addition, the “time of charge saturation” value in data set [2] (blending at 13 rpm, 16% RH) was 30 min.

(Values after patent US20240041773A1, “POWDER MIXING DEVICE, AND USES THEREOF” (University of Connecticut, priority 2022, published 2024).)
